{"source": "patent US20110014164A1", "about": "“EFFICIENT INDUCTION OF PLURIPOTENT STEM CELLS USING SMALL MOLECULE COMPOUNDS” (PRESIDENT AND FELLOWS OF HARVARD COLLEGE, priority 2008, published 2011)", "tested_on": "MEFs infected with the four factors (Oct4, Sox2, Klf4 and c-Myc)", "test": "GFP positive iPS colony number in 4-factor infected MEFs", "format": "cell-based, mouse", "experimental": "FIG. 1(c) Representative pictures at 11 days post-infection showing a significant increase of GFP positive iPS colonies in infected MEFs with VPA treatment compared to non-treated control.\nConsistent with the FACS data, GFP positive iPS colonies emerge sooner and in greater numbers with VPA treatment. […] GFP positive colonies only start to emerge after 10 days post-infection in untreated cells.\nFor the generation of mouse iPS cells, infected MEFs were cultured in mouse ES cell media until iPS colonies were ready to be picked. In some experiments, knockout serum replacement was used instead of the Hyclone FBS in the mouse ES cell media, which appeared to accelerate the reprogramming process, consistent with a recent report^26. Chemical treatment started 1 or 2 days post-infection and lasted for a week in general. iPS colonies were picked between 9-21 days post-infection based on GFP expression and colony morphology. The picked colonies were then expanded and maintained on irradiated MEF feeder layers in mouse ES cell media."}
{"smiles": "CCCC(CCC)C(=O)O", "note": "[VPA, valproic acid]", "values": [{"measurement": "average number of GFP positive colonies", "setting": "8 days post-infection, out of 270,000 cells seeded, no colonies without chemical treatment", "value": 241, "unit": "colonies"}, {"measurement": "difference in colony number, treated versus non-treated", "setting": "two weeks post-infection", "value": "more than 40 fold"}]}
